29 compounds from US20230167073A1 (Teijin Pharma Limited, priority 2020, published 2023) can be followed below.

The assay has as its target T1, Human TRPC6 (Homo sapiens, UniProt Q9Y210).
T1 construct: expressed in transfected cells
T1 sequence (Q9Y210 1-931): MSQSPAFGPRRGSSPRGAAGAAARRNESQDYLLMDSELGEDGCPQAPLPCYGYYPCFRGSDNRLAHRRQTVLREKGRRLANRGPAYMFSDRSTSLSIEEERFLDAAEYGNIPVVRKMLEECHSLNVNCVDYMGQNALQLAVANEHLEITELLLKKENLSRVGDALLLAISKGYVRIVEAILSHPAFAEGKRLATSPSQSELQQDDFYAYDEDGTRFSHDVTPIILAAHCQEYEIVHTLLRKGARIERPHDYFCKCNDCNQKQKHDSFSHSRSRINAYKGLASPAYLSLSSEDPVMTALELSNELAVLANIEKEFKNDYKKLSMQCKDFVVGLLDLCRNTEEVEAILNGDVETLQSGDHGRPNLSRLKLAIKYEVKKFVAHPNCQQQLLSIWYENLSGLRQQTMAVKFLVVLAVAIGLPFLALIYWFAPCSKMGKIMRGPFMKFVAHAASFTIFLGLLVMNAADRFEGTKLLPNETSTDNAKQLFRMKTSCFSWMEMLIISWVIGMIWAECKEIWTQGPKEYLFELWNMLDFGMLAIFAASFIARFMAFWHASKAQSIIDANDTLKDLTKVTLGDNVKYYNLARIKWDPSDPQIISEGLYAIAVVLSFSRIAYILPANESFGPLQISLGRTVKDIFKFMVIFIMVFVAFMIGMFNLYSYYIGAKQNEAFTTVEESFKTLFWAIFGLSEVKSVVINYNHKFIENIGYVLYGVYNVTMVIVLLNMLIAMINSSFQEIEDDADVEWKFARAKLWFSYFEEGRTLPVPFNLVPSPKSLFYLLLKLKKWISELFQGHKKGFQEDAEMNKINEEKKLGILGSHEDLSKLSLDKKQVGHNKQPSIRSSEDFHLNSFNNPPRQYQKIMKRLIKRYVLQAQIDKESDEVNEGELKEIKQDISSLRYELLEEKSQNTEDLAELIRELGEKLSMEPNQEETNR
Put plainly: Evaluation of TRPC6 channel inhibitory activity (1), FLIPR Calcium 5 Assay Kit, OAG stimulation (Compound Nos. 1-1293). The format is cell-based. The settings on record: Human TRPC6 stably-expressing cells, OAG 30 μM, FLIPR Calcium 5 Assay Kit; read-out: Inhibitory activity (pIC50 class) (converted). In outline: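 Cells stably expressing human TRPC6, plated 24 h before, were loaded 30 min with Calcium 5 dye plus probenecid in HEPES-HBSS. Compound was added 20 min before OAG (30 μM final) and fluorescence tracked on FLIPR. Inhibition normalised to no-compound and no-compound/no-OAG wells; pIC50 from four-parameter fit, reported as +/++/+++ categories.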
Take `N#Cc1ccc(-n2cc(C(O)CN)cn2)c(Oc2cc(N3CCOCC3)nc(C(F)(F)F)n2)c1` (centres unmarked) [Compound 155, 4-[4-(2-amino-1-hydroxyethyl)pyrazol-1-yl]-3-[6-morpholin-4-yl-2-(trifluoromethyl)pyrimidin-4-yl]oxybenzonitrile]: the IC50 is 10 to 1000 nM.
Take `Cn1nc(C2CC2)cc1Oc1cc(C#N)ccc1-c1ccc(C(N)C(=O)N2CCCCC2)cn1` (centres unmarked) [compound 486, 4-[5-(1-amino-2-oxo-2-piperidin-1-ylethyl)pyridin-2-yl]-3-(5-cyclopropyl-2-methylpyrazol-3-yl)oxybenzonitrile]: the IC50 is > 1000 nM.
As for `C=C(c1cc(N2CCOCC2)nc(C)n1)c1cc(C#N)ccc1-c1ccc(CCN)cc1` [compound 1228, 4-[4-(2-aminoethyl)phenyl]-3-[1-(2-methyl-6-morpholin-4-ylpyrimidin-4-yl)ethenyl]benzonitrile], the figure is 10 to 1000 nM; as for `Cn1nc(C2CC2)cc1Oc1cc(C#N)ccc1-c1ccc(CCN)cn1` [Compound 202, 4-[5-(2-aminoethyl)pyridin-2-yl]-3-(5-cyclopropyl-2-methylpyrazol-3-yl)oxybenzonitrile], < 10 nM.
The same measure for `C[C@@H](N)c1cnc(-c2ccc(C#N)cc2Oc2cc(-c3ccccn3)nn2C)nc1` [compound 808, 4-[5-[(1R)-1-aminoethyl]pyrimidin-2-yl]-3-(2-methyl-5-pyridin-2-ylpyrazol-3-yl)oxybenzonitrile]: < 10 nM; for `Cn1nc(-c2ccccn2)cc1Oc1cc(C#N)ccc1-c1ccc(C(C)(C)N)cn1` [compound 395, 4-[5-(2-aminopropan-2-yl)pyridin-2-yl]-3-(2-methyl-5-pyridin-2-ylpyrazol-3-yl)oxybenzonitrile]: 10 to 1000 nM; for `Cn1nc(C2CC2)cc1Oc1cc(C#N)ccc1-c1ccc(C(=O)CN)cn1` [compound 923, 4-[5-(2-aminoacetyl)pyridin-2-yl]-3-(5-cyclopropyl-2-methylpyrazol-3-yl)oxybenzonitrile]: 10 to 1000 nM.
The same measure for `NCCc1cnc(-c2ccc(Cl)cc2Oc2cnn(CC(F)(F)F)c2)nc1` [compound 1023, 2-[2-[4-chloro-2-[1-(2,2,2-trifluoroethyl)pyrazol-4-yl]oxyphenyl]pyrimidin-5-yl]ethanamine]: 10 to 1000 nM.
Consider `Cc1nc(Oc2cc(C#N)ccc2-c2ccc(CCN)cc2)cc(-c2ccccc2C(F)(F)F)n1` [Compound 23, 4-[4-(2-aminoethyl)phenyl]-3-[2-methyl-6-[2-(trifluoromethyl)phenyl]pyrimidin-4-yl]oxybenzonitrile], for which the IC50 was 10 to 1000 nM.
For `Cc1nc(Oc2cc(C#N)ccc2-c2cnc(C(O)CN)s2)cc(-c2ccccc2)n1` (centres unmarked) [Compound 263, 4-[2-(2-amino-1-hydroxyethyl)-1,3-thiazol-5-yl]-3-(2-methyl-6-phenylpyrimidin-4-yl)oxybenzonitrile], the IC50 was 10 to 1000 nM.
The same measure for `Cc1nc(N2CCOCC2)cc(C2(c3cc(C#N)ccc3-c3ccc(CCN)cc3)CC2)n1` [Compound No. 1227, 4-[4-(2-Aminoethyl)phenyl]-3-[1-(2-methyl-6-morpholin-4-ylpyrimidin-4-yl)cyclopropyl]benzonitrile]: 10 to 1000 nM.
As for `Cn1nc(-c2ccccn2)cc1Oc1cc(C#N)ccc1-c1ncc(CN)s1` [compound 521, 4-[5-(aminomethyl)-1,3-thiazol-2-yl]-3-(2-methyl-5-pyridin-2-ylpyrazol-3-yl)oxybenzonitrile], the figure is < 10 nM; as for `Cc1nc(Oc2cc(C#N)ccc2-c2ccc(N3CCN(C)CC3)cc2)cc(N2CCOCC2)n1` [Compound 10, 3-(2-methyl-6-morpholin-4-ylpyrimidin-4-yl)oxy-4-[4-(4-methylpiperazin-1-yl)phenyl]benzonitrile], > 1000 nM; as for `Cc1nc(Oc2cc(C#N)ccc2-c2ccc([C@H](O)CN)cn2)cc(-c2nccs2)n1` [compound 603, 4-[5-[(1S)-2-amino-1-hydroxyethyl]pyridin-2-yl]-3-[2-methyl-6-(1,3-thiazol-2-yl)pyrimidin-4-yl]oxybenzonitrile], 10 to 1000 nM.
Regarding `Cc1nc(Oc2cc(C#N)ccc2-c2ncc(CN)cn2)cc(N2CCOC(C)(C)C2)n1` [compound 710, 4-[5-(aminomethyl)pyrimidin-2-yl]-3-[6-(2,2-dimethylmorpholin-4-yl)-2-methylpyrimidin-4-yl]oxybenzonitrile], the IC50 was 10 to 1000 nM.
The same measure for `CCc1c(Oc2cc(C#N)ccc2-c2ncc(CCN)cn2)cnn1CC(C)C` [compound 954, 4-[5-(2-aminoethyl)pyrimidin-2-yl]-3-[5-ethyl-1-(2-methylpropyl)pyrazol-4-yl]oxybenzonitrile]: 10 to 1000 nM.
The same measure for `Cn1nc(-c2ccccc2)cc1Oc1nc(Cl)ccc1-c1ccc(CCN)cn1` [compound 1292, 2-[6-[6-chloro-2-(2-methyl-5-phenylpyrazol-3-yl)oxypyridin-3-yl]pyridin-3-yl]ethanamine]: 10 to 1000 nM; for `Cc1nc(Oc2cc(C#N)ccc2-c2ccc(CCN)cc2)cc(C2CCCC2)n1` [Compound 46, 4-[4-(2-aminoethyl)phenyl]-3-(6-cyclopentyl-2-methylpyrimidin-4-yl)oxybenzonitrile]: < 10 nM.
On to `CC(C)Cn1cc(Cc2cc(F)ccc2-c2ncc(CN)cn2)cn1` [compound 1223, [2-[4-fluoro-2-[[1-(2-methylpropyl)pyrazol-4-yl]methyl]phenyl]pyrimidin-5-yl]methanamine], for which the IC50 is > 1000 nM.
As for `N#Cc1ccc(-c2ccc(CN)cn2)c(Sc2cnnc(N3CCCC3)c2)c1` [compound 1264, 4-[5-(aminomethyl)pyridin-2-yl]-3-(6-pyrrolidin-1-ylpyridazin-4-yl)sulfanylbenzonitrile], the figure is 10 to 1000 nM.
As for `Cc1nc(Oc2cc(C#N)ccc2-n2cc([C@@H](O)CN)cn2)cc(OC2CCCCC2)n1` [Compound 266, 4-[4-[(1R)-2-amino-1-hydroxyethyl]pyrazol-1-yl]-3-(6-cyclohexyloxy-2-methylpyrimidin-4-yl)oxybenzonitrile], the figure is < 10 nM; as for `Cn1nc(N2CCCCC2)cc1Cc1cc(C#N)ccc1-c1ncc(CN)cn1` [compound 1213, 4-[5-(aminomethyl)pyrimidin-2-yl]-3-[(2-methyl-5-piperidin-1-ylpyrazol-3-yl)methyl]benzonitrile], 10 to 1000 nM; as for `COCCN(C)c1cc(Oc2cc(C#N)ccc2-c2ncc(CCN)cn2)nc(C)n1` [compound 862, 4-[5-(2-aminoethyl)pyrimidin-2-yl]-3-[6-[2-methoxyethyl(methyl)amino]-2-methylpyrimidin-4-yl]oxybenzonitrile], 10 to 1000 nM.
The same measure for `Cc1nc(Oc2cc(C#N)ccc2-c2ccc(CCN)cc2)cc(N2CCC[C@@H]2C#N)n1` [Compound 130, (2R)-1-[6-[2-[4-(2-aminoethyl)phenyl]-5-cyanophenoxy]-2-methylpyrimidin-4-yl]pyrrolidine-2-carbonitrile]: < 10 nM.
For the compound `Cc1nc(-c2ccc(F)cc2)cn1Cc1cc(C#N)ccc1-c1ccc(CCN)cn1` [compound 1154, 4-[5-(2-aminoethyl)pyridin-2-yl]-3-[[4-(4-fluorophenyl)-2-methylimidazol-1-yl]methyl]benzonitrile], the IC50 is < 10 nM.
For `Cn1nc(C2CC2)cc1Oc1cc(C#N)ccc1-c1cc(N)nc2ccnn12` [compound 468, 4-(5-aminopyrazolo[1,5-a]pyrimidin-7-yl)-3-(5-cyclopropyl-2-methylpyrazol-3-yl)oxybenzonitrile], the IC50 is > 1000 nM.
The same measure for `Cc1nc(Oc2cc(C#N)ccc2-n2cc([C@@H](O)CN)cn2)cc(N2CCCC(F)(F)C2)n1` [Compound 257, 4-[4-[(1R)-2-amino-1-hydroxyethyl]pyrazol-1-yl]-3-[6-(3,3-difluoropiperidin-1-yl)-2-methylpyrimidin-4-yl]oxybenzonitrile]: 10 to 1000 nM; for `CCN(CC)c1cc(Oc2cc(C#N)ccc2-c2ncc(CCN)cn2)n(C)n1` [compound 656, 4-[5-(2-aminoethyl)pyrimidin-2-yl]-3-[5-(diethylamino)-2-methylpyrazol-3-yl]oxybenzonitrile]: < 10 nM.
The same measure for `Cc1c(Oc2cc(C#N)ccc2-c2ncc(CN)cn2)cnn1CC(F)(F)F` [compound 837, 4-[5-(aminomethyl)pyrimidin-2-yl]-3-[5-methyl-1-(2,2,2-trifluoroethyl)pyrazol-4-yl]oxybenzonitrile]: 10 to 1000 nM.
